How the values were obtained:
LKB1 = molecular target: T1, LKB1 (Homo sapiens, UniProt Q15831+Q7RTN6); experiment: in vitro LKB1 functional activity; format: biochemical; conditions: APA analogs
T1 sequence (Q15831 1-433): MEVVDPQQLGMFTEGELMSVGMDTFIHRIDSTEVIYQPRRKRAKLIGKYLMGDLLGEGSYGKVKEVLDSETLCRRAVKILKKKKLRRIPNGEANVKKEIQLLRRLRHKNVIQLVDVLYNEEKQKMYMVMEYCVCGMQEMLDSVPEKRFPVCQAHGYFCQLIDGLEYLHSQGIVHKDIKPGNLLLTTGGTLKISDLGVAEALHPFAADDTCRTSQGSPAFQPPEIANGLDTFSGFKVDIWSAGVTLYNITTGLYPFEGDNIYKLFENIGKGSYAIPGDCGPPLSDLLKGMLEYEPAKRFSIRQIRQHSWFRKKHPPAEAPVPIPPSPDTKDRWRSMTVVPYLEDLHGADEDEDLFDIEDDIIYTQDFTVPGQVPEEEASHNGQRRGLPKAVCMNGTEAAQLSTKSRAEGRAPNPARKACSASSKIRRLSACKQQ
T1 sequence (Q7RTN6 1-431): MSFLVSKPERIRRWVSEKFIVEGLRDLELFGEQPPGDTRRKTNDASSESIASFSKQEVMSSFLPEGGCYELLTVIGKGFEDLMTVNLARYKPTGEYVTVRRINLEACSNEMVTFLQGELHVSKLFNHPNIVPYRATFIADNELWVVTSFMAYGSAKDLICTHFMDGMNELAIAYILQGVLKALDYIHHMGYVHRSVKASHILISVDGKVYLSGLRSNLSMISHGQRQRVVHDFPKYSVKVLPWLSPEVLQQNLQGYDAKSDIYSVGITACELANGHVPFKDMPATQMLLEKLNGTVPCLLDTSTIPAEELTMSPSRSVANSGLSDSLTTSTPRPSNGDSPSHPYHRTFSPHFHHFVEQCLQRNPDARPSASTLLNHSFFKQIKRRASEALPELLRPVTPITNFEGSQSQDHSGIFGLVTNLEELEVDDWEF
T1 sequence (Q9Y376 1-341 partner): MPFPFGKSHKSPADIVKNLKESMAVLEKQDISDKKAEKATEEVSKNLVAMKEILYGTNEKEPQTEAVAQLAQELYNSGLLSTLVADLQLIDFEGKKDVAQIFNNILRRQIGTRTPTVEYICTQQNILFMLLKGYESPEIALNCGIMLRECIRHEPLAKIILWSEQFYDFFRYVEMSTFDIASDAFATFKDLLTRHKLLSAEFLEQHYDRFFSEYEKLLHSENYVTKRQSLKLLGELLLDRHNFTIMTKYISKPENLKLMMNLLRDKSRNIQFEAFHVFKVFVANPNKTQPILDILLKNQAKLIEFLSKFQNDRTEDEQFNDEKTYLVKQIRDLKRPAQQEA

[1] = system: most sensitive cancer cell line; experiment: cell activity: CTG anti-proliferation in most sensitive cancer cell line; format: cell-based; conditions: APA analogs

| LKB1 % Act. Increase (LKB1) | SMILES | IC50 [1] [µM] |
| --- | --- | --- |
| C (C=199-1000%) | Cc1ccc(-c2cnc(N)c(C(=O)Nc3ccc(S(N)(=O)=O)c(F)c3)n2)cc1 [SU20668-0305, 3-amino-N-(3-fluoro-4-sulfamoylphenyl)-6-p-tolylpyrazine-2-carboxamide] | < 3 |
|  | CCOP(=O)(OCC)C(F)S(=O)(=O)c1ccc(NC(=O)c2nc(-c3ccc(C)cc3)cnc2N)cc1 (stereo not shown) [SU20668-0485] | < 3 |
| C (C=199-1000%) | CC(=O)N[S@SP3](=O)(=O)c1ccc(NC(=O)c2nc(-c3ccc(C)cc3)cnc2N)cc1 [SU20668-0314, N-(4-(N-acetylsulfamoyl)phenyl)-3-amino-6-p-tolylpyrazine-2-carboxamide] | 3 to 50 |
| C (C=199-1000%) | CC(=O)NS(=O)(=O)c1ccc(NC(=O)c2nc(-c3ccc(C)s3)cnc2N)cc1 [SU20668-0349, N-(4-(N-acetylsulfamoyl)phenyl)-3-amino-6-(5-methylthiophen-2-yl)pyrazine-2-carboxamide] | 3 to 50 |
| A (A=>4000%) | Cc1ccc(-c2cnc(N)c(C(=O)Nc3ccc(S(=O)(=O)CC4COC4)cc3)n2)cc1 [SU20668-0494, 3-amino-N-(4-(oxetan-3-ylmethylsulfonyl)phenyl)-6-p-tolylpyrazine-2-carboxamide] | < 3 |
| C (C=199-1000%) | CC(=O)NS(=O)(=O)c1ccc(NC(=O)c2nc(-c3cc[nH]n3)cnc2N)cc1 [SU20668-0352, N-(4-(N-acetylsulfamoyl)phenyl)-3-amino-6-(1H-pyrazol-3-yl)pyrazine-2-carboxamide] |  |
| C (C=199-1000%) | Cc1ccc(-c2cnc(N)c(C(=O)Nc3ccc(CC(=O)O)cc3)n2)cc1 [SU20668-0330, 2-(4-(3-amino-6-p-tolylpyrazine-2-carboxamido)phenyl)acetic acid] |  |
| C (C=199-1000%) | CC(=O)NS(=O)(=O)c1ccc(NC(=O)c2nc(-c3ccc4cc[nH]c4c3)cnc2N)cc1 [SU20668-0345, N-(4-(N-acetylsulfamoyl)phenyl)-3-amino-6-(1H-indol-6-yl)pyrazine-2-carboxamide] |  |
| D (D=<1000%) | Cc1ccc(-c2cnc(N)c(C(=O)Nc3ccc(S(=O)(=O)CC(=O)O)cc3)n2)cc1 [SU20668-0310, 2-(4-(3-amino-6-p-tolylpyrazine-2-carboxamido)phenylsulfonyl)acetic acid] |  |
| D (D=<1000%) | CC(=O)NS(=O)(=O)c1ccc(NC(=O)c2nc(-c3ccc(C4CCCN4)cc3)cnc2N)cc1 (stereo not shown) [SU20668-0340, N-(4-(N-acetylsulfamoyl)phenyl)-3-amino-6-(4-(pyrrolidin-2-yl)phenyl)pyrazine-2-carboxamide] |  |
| C (C=199-1000%) | CC(=O)NS(=O)(=O)c1ccc(NC(=O)c2nc(-c3csc4ccccc34)cnc2N)cc1 [SU20668-0376, N-(4-(N-acetylsulfamoyl)phenyl)-3-amino-6-(benzo[b]thiophen-3-yl)pyrazine-2-carboxamide] |  |
| D (D=<1000%) | Cc1ccc(-c2cnc(N)c(C(=O)Nc3ccc(S(N)(=O)=O)nc3)n2)cc1 [SU20668-0304, 3-amino-N-(6-sulfamoylpyridin-3-yl)-6-p-tolylpyrazine-2-carboxamide] |  |
| D (D=<1000%) | Cc1ccc(-c2cnc(N)c(C(=O)Nc3ccc(S(=O)(=O)CP(=O)(OC(C)C)OC(C)C)cc3)n2)cc1 [SU20668-0484, diisopropyl (4-(3-amino-6-p-tolylpyrazine-2-carboxamido)phenylsulfonyl)methylphosphonate] |  |
| D (D=<1000%) | COC(=O)c1ccc(NC(=O)c2nc(-c3ccc(C)cc3)cnc2N)cc1F [SU20668-0307, methyl 4-(3-amino-6-p-tolylpyrazine-2-carboxamido)-2-fluorobenzoate] |  |
| C (C=199-1000%) | CC(=O)Nc1ccc(-c2cnc(N)c(C(=O)Nc3ccc(S(=O)(=O)NC(C)=O)cc3)n2)cc1 [SU20668-0346, 6-(4-acetamidophenyl)-N-(4-(N-acetylsulfamoyl)phenyl)-3-aminopyrazine-2-carboxamide] |  |
| D (D=<1000%) | CC(=O)NS(=O)(=O)c1ccc(NC(=O)c2nc(-c3ccc(C)cc3)cnc2N)cc1F [SU20668-0483] |  |

| SMILES | LKB1 % Act. Increase (LKB1) | IC50 [1] [µM] |
| --- | --- | --- |
| CCOP(=O)(CC)CS(=O)(=O)c1ccc(NC(=O)c2nc(-c3ccc(C)cc3)cnc2N)cc1 (stereo not shown) [SU20668-0515, ethyl (4-(3-amino-6-p-tolylpyrazine-2-carboxamido)phenylsulfonyl)methyl(ethyl)phosphinate] | B (B=399-2000%) | < 3 |
| CCOP(=O)(C[S@SP3](=O)(=O)c1ccc(NC(=O)c2nc(-c3ccc(C)cc3)cnc2N)cc1)OCC [SU20668-0313, diethyl (((4-(3-amino-6-(p-tolyl)pyrazine-2-carboxamido)phenyl)sulfonyl)methyl)phosphonate] | C (C=199-1000%) | < 3 |
| CO[P@](C)(=O)CS(=O)(=O)c1ccc(NC(=O)c2nc(-c3ccc(C)cc3)cnc2N)cc1 [SU20668-0520, (S)-methyl (4-(3-amino-6-p-tolylpyrazine-2-carboxamido)phenylsulfonyl)methyl(methyl)phosphinate] | A (A=>4000%) | < 3 |
| CCO[P@@](=O)(CC)CS(=O)(=O)c1ccc(NC(=O)c2nc(-c3ccc(C)cc3)cnc2N)cc1 [SU20668-0522, (S)-ethyl (4-(3-amino-6-p-tolylpyrazine-2-carboxamido)phenylsulfonyl)methyl(ethyl)phosphinate] | B (B=399-2000%) | < 3 |
| Cc1ccc(-c2cnc(N)c(C(=O)Nc3ccc(P(=O)(O)O)cc3)n2)cc1 [SU20668-0196, 4-(3-amino-6-p-tolylpyrazine-2-carboxamido)phenylphosphonic acid] | C (C=199-1000%) |  |
| CCOP(=O)(OCC)c1ccc(NC(=O)c2nc(-c3ccc(C)cc3)cnc2N)cc1 [SU20668-0211, diethyl 4-(3-amino-6-p-tolylpyrazine-2-carboxamido)phenylphosphonate] | D (D=<1000%) |  |
| COP(=O)(CS(=O)(=O)c1ccc(NC(=O)c2nc(-c3ccc(S(C)(=O)=O)cc3)cnc2N)cc1)OC [SU20668-0447, dimethyl (4-(3-amino-6-(4-(methylsulfonyl)phenyl)pyrazine-2-carboxamido)phenylsulfonyl)methylphosphonate] | D (D=<1000%) |  |
| CCO[P@@](C)(=O)CS(=O)(=O)c1ccc(NC(=O)c2nc(-c3ccc(C)cc3)cnc2N)cc1 [SU20668-0517, (R)-ethyl (4-(3-amino-6-p-tolylpyrazine-2-carboxamido)phenylsulfonyl)methyl(methyl)phosphinate] | B (B=399-2000%) |  |
| CCP(=O)(CS(=O)(=O)c1ccc(NC(=O)c2nc(-c3ccc(C)cc3)cnc2N)cc1)OC (stereo not shown) [SU20668-0514, methyl (4-(3-amino-6-p-tolylpyrazine-2-carboxamido)phenylsulfonyl)methyl(ethyl)phosphinate] | B (B=399-2000%) |  |
| CCOP(=O)(NS(=O)(=O)c1ccc(NC(=O)c2nc(-c3ccc(C)cc3)cnc2N)cc1)OCC [SU20668-0475, diethyl 4-(3-amino-6-p-tolylpyrazine-2-carboxamido)phenylsulfonylphosphoramidate] | B (B=399-2000%) |  |

Source: patent US12195490B2, “STRAD-binding agents and uses thereof” (The Regents of the University of California, priority 2020, dated 2025)
